Consider two compounds from patent publication US7902361B2, “Pyrimidin-4-yl-3, 4-thione compounds and their use in therapy” (Cyclacel Limited, priority 2003, dated 2011).

One data set relates to PEPCK gene expression. In words: PEPCK gene expression assay - qPCR in HEPG2 cells. In kind it is cell-based. To be noted: HEPG2; 100 nM + Dex/cAMP. How it is done: PEPCK gene expression was studied in HEPG2 (hepatocarcinoma) cells, seeded in 6-well plate at […] per well. The cells were serum-starved for 20 hours before treatment with dexamethasone/cAMP (stimulator of PEPCK gene expression) in the presence or absence of insulin or GSK3 inhibitor example compounds. After 3 hours treatment the cells were harvested, lysed and RNA extracted using mini RNeasy spin columns (Quiagen). The primer set COD2063/COD2064 (350 bp) was used for the PEPCK gene. The one step RT-PCR was carried out using the Lightcycler-RNA Master SYBR Green 1 Kit. The qPCR analysis calculates the number of the PCR cycles required for the PCR product amplification to reach logarithmic phase. QPCR for a housekeeping gene—28S—was used for normalisation. PEPCK is a key enzyme in gluconeogenesis in the liver and it is known to be negatively regulated by insulin via inhibition of GSK3. The effect of example compounds on PEPCK gene expression was studied in HEPG2 cells treated with dexamethasone/cAMP (a positive regulator PEPCK gene expression) in the presence or absence of insulin or GSK3 inhibitors. Example compound inhibitors of GSK3 were efficient in the abolishment of dexamethasone/cAMP induced stimulation of PEPCK gene expression in HEPG2 cells.

The target of a further data set is T1, GSK3α (Homo sapiens, UniProt P49840).
T1 construct: purchased Upstate
T1 sequence (P49840 whole entry): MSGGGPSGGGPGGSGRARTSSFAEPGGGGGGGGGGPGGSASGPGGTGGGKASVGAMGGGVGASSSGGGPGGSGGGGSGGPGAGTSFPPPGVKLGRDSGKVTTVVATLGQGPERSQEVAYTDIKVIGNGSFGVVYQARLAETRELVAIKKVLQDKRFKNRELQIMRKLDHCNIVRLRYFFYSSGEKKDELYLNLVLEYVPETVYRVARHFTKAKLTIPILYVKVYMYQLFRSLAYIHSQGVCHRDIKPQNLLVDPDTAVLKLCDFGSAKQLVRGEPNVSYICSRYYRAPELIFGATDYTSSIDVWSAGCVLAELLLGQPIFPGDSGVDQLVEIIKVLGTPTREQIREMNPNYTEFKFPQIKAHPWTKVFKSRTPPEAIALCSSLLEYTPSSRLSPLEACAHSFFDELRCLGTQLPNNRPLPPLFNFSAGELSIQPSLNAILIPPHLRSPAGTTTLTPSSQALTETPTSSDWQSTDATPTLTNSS
In words: GSK3α in vitro kinase assay. In kind it is biochemical. To be noted: recombinant human GSK3α, 100 μM ATP. How it is done:
Both isoforms of GSK3 (α and β) are involved in the regulation of glycogen synthase activity—key enzyme in the glycogen metabolism. The inhibitory potency of example compounds was determined using in vitro kinase assays with recombinant human GSK3-α and -β; the IC50 values determined are presented in Table 9.
A 10-point titration was set up to determine the IC50 values of selected example compounds against GSK3β. Assays were performed using 96-well microtiter plates with a final volume of 25 μL per well. Each assay contained 1.5 units of GSK3β(New England Biolabs), 200 μM CREB phosphopeptide ([…]pSYR, Alta Biosciences), 20 mM Tris HCl pH7.5, 5 mM DTT, 15 mM MgCl2 supplemented with 100 μM ATP and 0.5 μCi of [γ-^32P] ATP plus or minus inhibitor in 2% DMSO. Assays were carried out for 30 minutes at 30° C. before stopping the reaction by the addition of an equal volume of 75 mM aqueous phosphoric acid. Samples were then spotted onto a p81 filterplate (Whatman) and a vacuum was applied. Wells were washed 3 times with 200 μL of dilute aqueous phosphoric acid before the addition of 50 μL Microscint 40 per well. Incorporation of radioactivity was determined on a Topcount microplate scintillation counter (Packard).
GSK3α (Upstate) was assayed exactly as described above except that 1 ng of enzyme was added per assay point.

The target in the next data set is T2, DYRK1A (Homo sapiens, UniProt Q13627).
T2 construct: purchased Upstate
Kind of data set: DYRK1A in vitro kinase assay. The format is biochemical. To be noted: recombinant human DYRK1A, 100 μM ATP. The source says: Dual specificity tyrosine phosphorylation regulated kinase 1A (DYRK1A) has been proposed, amongst other functions, to play a role in the regulation of glycogen metabolism in a way similar to GSK3. Some of the example compounds of the present invention were screened against recombinant human DYRK1A in vitro and the determined IC50 values are shown in Table 9. According to our current knowledge inhibition of DYRK1A will have additional positive effect on stimulation of glycogen synthase.
A 10-point titration was set up to determine the IC50 values of selected example compounds against DYRK1A. Assays were performed using 96-well microtiter plates and a final volume of 25 μL/well. Each assay contained 2.3 milliunits of DYRK1A (Upstate), 50 μM Woodtide peptide ([…], Upstate), 20 mM Tris HCl pH 8.0, 10 mM DTT, 5 mM EGTA, 1 mM NaVO3, 31 mM β-glycerophosphate, 15 mM MgCl2 supplemented with 100 μM ATP and 0.5 μCi of [γ-^32P] ATP plus or minus inhibitor in 2% DMSO. Assays were carried out for 60 minutes at 30° C. before stopping the reaction by the addition of an equal volume of 75 mM aqueous phosphoric acid. Samples were then spotted onto a p81 filterplate (Whatman) and a vacuum applied. Wells were washed 3 times with 200 μL of dilute aqueous phosphoric acid before the addition of 50 μL Microscint 40 per well. Incorporation of radioactivity was determined on a Topcount microplate scintillation counter (Packard).

The target of the next data set is CDK7/cyclin H (Homo sapiens, UniProt P50613). Kind of data set: Kinase assay CDK7/cyclin H. In kind it is biochemical. To be noted: Ki calculated (Cheng-Prusoff) from experimentally determined IC50 and Km,ATP; read-out: Kinase Inhibition Ki CDK7 - cyclin H. Summed up:
(§1)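 Radiometric filter assays used recombinant kinases or complexes (2-4 μg) with appropriate polypeptide substrates in pH 7.4 β-glycerophosphate/MOPS buffer. Reactions were started with 15 mM MgCl2 and 100 μM ATP containing [γ-32P]-ATP and run at 30° C. Phosphate incorporated into substrate was counted by scintillation after washing.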

A short description of data set [1]: Blood levels of test compounds in ZDF fa/fa rats. In kind it is in vivo, rat. To be noted: 30 mg/kg per os twice. As for the experimental part:
(§2) The ability of example compounds of the present invention to improve glucose metabolism was tested in 12-13 week old male ZDF fa/fa rats. The test animals (10-15 mmol/L fasting glucose level) were dosed twice at 30 mg/kg and the glucose challenge was given at time 0. […] Most of these blood levels were below the EC50 values determined in cellular assays.
(§3) 12-13 weeks old male ZDF fa/fa rats were used to study the effect of example compounds on oral glucose tolerance. […] Body weight was recorded three times per week. Test compounds were dissolve in a formulation of 10% DMSO, 5% Tween, 5% Span 20, 30% PEG 400 and 50% water (v/v) to provide final solutions at 5 mg/mL concentration. Each experimental group contained 7 animals. After an 16 h overnight fast the test compounds were administered at 30 mg/kg per os twice (at −270 min and −30 min) before the oral glucose tolerance test was commenced (2 g glucose/kg per os as a 40% solution introduced via feeding tube). A control group was dosed in a similar manner with the vehicle only. Blood sampling for blood glucose measurement (20 μL blood) was performed at −270, 0, 15, 30, 60, 90, 120 and 180 min. Mixed venous blood was collected from the tail vein into 20-μL glass capillaries, which were placed in a standard tube filled with 1 mL solution for hemolysis. Glucose levels were measured using the glucose oxidase procedure (Super G Glukosemessgeraet; Dr Mueller Geraetebau, Freital, Germany). In addition, 50 μL blood samples were taken at 30 and 60 min after the glucose dose, placed in heparinized tubes, which were then frozen immediately in liquid nitrogen. The bioanalytical method used employed isocratic elution liquid chromatography—tandem mass spectrometry in electrospray positive ion multiple reaction monitoring mode.

The target in another data set is T3, GSK3β (Homo sapiens, UniProt P49841).
T3 construct: purchased New England Biolabs
T3 sequence (P49841 whole entry): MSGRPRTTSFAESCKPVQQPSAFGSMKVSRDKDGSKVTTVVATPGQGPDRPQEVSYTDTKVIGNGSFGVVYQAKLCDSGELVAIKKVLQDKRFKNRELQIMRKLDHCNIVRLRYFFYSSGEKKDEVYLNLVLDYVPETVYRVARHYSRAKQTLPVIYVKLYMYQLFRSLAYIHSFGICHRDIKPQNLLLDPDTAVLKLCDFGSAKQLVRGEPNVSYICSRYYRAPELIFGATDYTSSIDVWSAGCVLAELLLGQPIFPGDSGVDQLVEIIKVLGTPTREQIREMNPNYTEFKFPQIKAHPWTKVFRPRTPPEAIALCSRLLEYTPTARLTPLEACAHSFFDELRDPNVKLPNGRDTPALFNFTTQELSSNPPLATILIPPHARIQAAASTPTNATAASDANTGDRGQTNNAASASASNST
In words: GSK3β in vitro kinase assay. To be noted: recombinant human GSK3β, 100 μM ATP. In kind it is biochemical. Summed up:
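Radiometric filter-binding assay with GSK3β (1.5 units), 200 μM CREB phosphopeptide, 100 μM ATP plus [γ-32P]ATP, in 20 mM Tris HCl pH7.5, 5 mM DTT, 15 mM MgCl2, 2% DMSO; 30 min at 30° C, stopped with phosphoric acid. 32P incorporation counted by scintillation; IC50 from 10-point titration.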

The target in another data set is CDK2/cyclin E (Homo sapiens, UniProt P24941). Kind of data set: Kinase assay CDK2/cyclin E. In kind it is biochemical. To be noted: Ki calculated (Cheng-Prusoff) from experimentally determined IC50 and Km,ATP; read-out: Kinase Inhibition Ki CDK2 - cyclin E. Summed up:
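Radiometric assays measured transfer of radioactive phosphate from ATP onto polypeptide substrates, using 2-4 μg recombinant active enzyme in buffer typically containing 25 mM β-glycerophosphate, 20 mM MOPS, 5 mM EGTA, 1 mM DTT and 1 mM Na3VO3 at pH 7.4. Reactions were stopped on ice, filtered on P81 or GF/C plates and washed with orthophosphoric acid. Incorporated radioactivity was scintillation-counted.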

The target of a further data set is CDK9/cyclin T1 (Homo sapiens, UniProt P50750). In words: Kinase assay CDK9/cyclin T1. In kind it is biochemical. To be noted: Ki calculated (Cheng-Prusoff) from experimentally determined IC50 and Km,ATP; read-out: Kinase Inhibition Ki CDK9 - cyclin T1. Summed up: as §1
CDK9/cyclin T1, sequence (P50750 whole entry, species assumed): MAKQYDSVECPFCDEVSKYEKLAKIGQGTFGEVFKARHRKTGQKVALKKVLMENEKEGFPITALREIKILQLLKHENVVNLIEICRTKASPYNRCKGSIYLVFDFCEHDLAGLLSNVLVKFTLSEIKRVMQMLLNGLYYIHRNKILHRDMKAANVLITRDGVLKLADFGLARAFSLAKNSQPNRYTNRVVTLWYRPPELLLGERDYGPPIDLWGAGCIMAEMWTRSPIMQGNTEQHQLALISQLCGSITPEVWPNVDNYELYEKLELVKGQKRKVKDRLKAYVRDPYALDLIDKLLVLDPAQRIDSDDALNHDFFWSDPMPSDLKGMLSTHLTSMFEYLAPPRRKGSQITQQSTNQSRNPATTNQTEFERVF
CDK9/cyclin T1, sequence (O60563 whole entry partner, species assumed): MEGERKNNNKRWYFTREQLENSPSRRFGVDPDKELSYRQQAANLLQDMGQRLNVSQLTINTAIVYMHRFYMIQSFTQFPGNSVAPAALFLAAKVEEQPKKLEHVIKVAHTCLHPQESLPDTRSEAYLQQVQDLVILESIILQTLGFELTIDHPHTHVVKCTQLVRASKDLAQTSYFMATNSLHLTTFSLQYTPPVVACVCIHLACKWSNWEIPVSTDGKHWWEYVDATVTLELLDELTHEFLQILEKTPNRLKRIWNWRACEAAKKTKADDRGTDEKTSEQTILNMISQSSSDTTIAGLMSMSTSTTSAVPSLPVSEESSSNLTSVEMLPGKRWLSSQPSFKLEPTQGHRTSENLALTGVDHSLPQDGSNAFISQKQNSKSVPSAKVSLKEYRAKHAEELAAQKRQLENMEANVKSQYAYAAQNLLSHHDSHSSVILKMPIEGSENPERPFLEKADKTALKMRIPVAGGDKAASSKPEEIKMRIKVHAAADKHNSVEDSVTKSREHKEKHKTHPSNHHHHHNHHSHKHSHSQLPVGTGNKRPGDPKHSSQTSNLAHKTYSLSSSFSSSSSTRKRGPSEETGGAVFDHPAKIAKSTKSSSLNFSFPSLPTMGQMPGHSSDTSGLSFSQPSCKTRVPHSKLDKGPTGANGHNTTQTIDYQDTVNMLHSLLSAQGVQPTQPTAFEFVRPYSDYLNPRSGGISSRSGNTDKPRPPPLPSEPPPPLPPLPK
Data set [2] can be described thus: Oral glucose tolerance in male ZDF fa/fa rats. The format is in vivo, rat. As for the experimental part: as §2, §3
Where [3] appears, read: ZDF fa/fa rats, oral glucose tolerance, 30 mg/kg per os twice (−270 and −30 min).
The mark [4] stands for this setting: male ZDF fa/fa rats, 30 mg/kg per os twice, oral glucose tolerance test.

Marks after values point to notes of the source that are not given here.

CDK7/cyclin H, sequence (P50613 whole entry, species assumed): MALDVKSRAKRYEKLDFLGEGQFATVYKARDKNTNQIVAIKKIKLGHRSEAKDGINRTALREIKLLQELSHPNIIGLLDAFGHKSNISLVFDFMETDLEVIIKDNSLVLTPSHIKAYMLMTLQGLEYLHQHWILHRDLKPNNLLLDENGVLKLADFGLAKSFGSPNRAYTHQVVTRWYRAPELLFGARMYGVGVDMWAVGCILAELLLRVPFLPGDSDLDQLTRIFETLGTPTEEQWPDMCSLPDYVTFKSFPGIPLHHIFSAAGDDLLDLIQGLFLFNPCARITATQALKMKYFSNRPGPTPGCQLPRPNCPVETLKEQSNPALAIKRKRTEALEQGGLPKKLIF
CDK7/cyclin H, sequence (P51946 whole entry partner, species assumed): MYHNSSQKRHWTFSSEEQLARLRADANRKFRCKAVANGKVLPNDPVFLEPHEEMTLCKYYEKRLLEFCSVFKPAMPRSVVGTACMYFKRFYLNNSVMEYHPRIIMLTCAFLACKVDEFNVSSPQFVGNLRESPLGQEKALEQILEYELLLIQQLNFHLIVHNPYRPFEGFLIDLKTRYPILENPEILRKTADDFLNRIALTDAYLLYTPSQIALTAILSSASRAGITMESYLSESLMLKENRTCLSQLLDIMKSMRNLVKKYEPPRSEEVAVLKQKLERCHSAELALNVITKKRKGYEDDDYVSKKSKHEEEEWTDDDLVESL

Take Insulin: the “PEPCK gene expression, % of maximum stimulation” value in the data set on PEPCK gene expression amounted to 44.09 ± 11.07%.

For `Cc1c(-c2ccnc(Nc3ccc(Cl)c(C(F)(F)F)c3)n2)sc(=O)n1C` [Compound 66, 5-[2-(4-Chloro-3-trifluoromethyl-phenylamino)-pyrimidin-4-yl]-3,4-dimethyl-3H-thiazol-2-one], the figures for the IC50 at GSK3α, at DYRK1A and at GSK3β were 32 nM, 356 nM and 15 nM, respectively. Moreover, the inhibition constant Ki at CDK7/cyclin H is 2300 nM; at CDK2/cyclin E, 200 nM; at CDK9/cyclin T1 it was 21 nM. The “oral bioavailability (blood levels at 30 and 60 min after the glucose load)” value in [1] (male ZDF fa/fa rats) is listed as “some oral bioavailability”. Moreover, the concentration at 30 min in data set [1] (male, rat, whole blood, oral, ZDF fa/fa rats, time 30 min) is 157 ng/mL. The compound further registered a concentration at 60 min in data set [1] (male, rat, whole blood, oral, ZDF fa/fa rats, time 60 min) of 162 ng/mL. In data set [2] (setting [3]), the “% Glucose Decrease AUC (−270–180 min)” value is 20%. Moreover, the “% Glucose decrease-AUC (0–180 min)” value in data set [2] (setting [3]) is 17* %. Also, the “decreased blood glucose levels” value in [2] (setting [4]) is given as “statistically significant”. Also, the “glucose AUC” value in data set [2] (setting [4]) is on record as “moderate decrease”.

Usually IC50 stands for the concentration that inhibits the measured activity by half. For orientation: Ki means the equilibrium dissociation constant of an inhibitor or competing ligand from its target.
